Assay results: patent US11219215B2, “Herbicidal composition comprising cinmethylin and specific inhibitors of protoporphyrinogen oxidase” (BASF Agro B.V., priority 2015, dated 2022)
Values joined by “and” are separate entries in the source; they are usually repeats but may differ in a detail not shown here. Equal entries are not always repeated.

Columns and labels:
Assay type in all cases: in vivo
Setaria viridis [1] = assay: Greenhouse postemergence herbicidal activity, SETVI; settings: 20 DAT
Experimental: (§1) For the post emergence treatment, the plants were first grown to the 2 leaf station (GS 12). Here, the herbicidal compositions were suspended or emulsified in water as distribution medium and sprayed using finely distributing nozzles.
(§2) The plants have been cultivated due to their individual requirements at 10-25° C. and 20-35° C.
(§3) The plants were irrigated due to their necessity.
(§4) The racemic mixture (±)-2-exo-(2-Methylbenzyloxy)-1-methyl-4-isopropyl-7-oxabicyclo[2.2.1]heptane was used as herbicide A and formulated as emulsifiable concentrates with an active ingredient concentration of 50g/I, 100 g/I or 750 g/I respectively.
(§5) Flumioxazin (herbicide B.1) was used as a wettable powder (WP) formulation having an active ingredient concentration of 50%.
(§6) Sulfentrazone (herbicide B.2) was used as a suspension concentrate (SC) having an active ingredient concentration of 480 g/l.
(§7) In the following experiments, the herbicidal activity for the individual herbicidal compositions (solo and mixture applications) was assessed 20 days after treatment (DAT). […]
(§8) The value E corresponds to the effect (plant damage or injury) which is to be expected if the activity of the individual compounds is additive. If the observed effect is higher than the value E calculated according to the Colby equation, a synergistic effect is present.

Avena fatua = assay: Greenhouse preemergence herbicidal activity, AVEFA; settings: 20 DAT
Experimental: (§9) The containers were irrigated gently to promote germination and growth and subsequently covered with transparent plastic hoods until the plants had rooted.
as §2, §3, §4, §5, §6, §7, §8

Polygonum convolvulus = assay: Greenhouse preemergence herbicidal activity, POLCO; settings: 20 DAT
Experimental: as §9, §2, §3, §4, §5, §6
(§10) In the following experiments, the herbicidal activity for the individual herbicidal compositions (solo and mixture applications) was assessed 20 days after treatment (DAT).
(§11) The evaluation for the damage on undesired weeds caused by the chemical compositions was carried out using a scale from 0 to 100%, compared to the untreated control plants. Here, 0 means no damage and 100 means complete destruction of the plants.
(§12) E=X+Y−(X·Y/100) where X=effect in percent using herbicide A at an application rate a; • Y=effect in percent using herbicide B at application rate b; • E=expected effect (in %) of herbicide A+herbicide B at application rates a+b.
as §8

Sorghum halepense = assay: Greenhouse preemergence herbicidal activity, SORHA; settings: 20 DAT
Experimental: as §9, §2, §3, §4, §5, §6, §10, §11, §12, §8

Digitaria sanguinalis = assay: Greenhouse postemergence herbicidal activity, DIGSA; settings: 20 DAT
Experimental: as §1, §2, §3, §4, §5, §6, §10, §11, §12, §8

Geranium dissectum [2] = assay: Greenhouse postemergence herbicidal activity, GERDI; settings: herbicide A solo 62.5 g ai/ha, 20 DAT
Experimental: as §1, §2, §3, §4, §5, §6, §7, §8

Alopecurus myosuroides = assay: Greenhouse preemergence herbicidal activity, ALOMY; settings: 20 DAT
Experimental: as §9, §2, §3, §4, §5, §6, §10, §11, §12, §8

Geranium dissectum [3] = assay: Greenhouse preemergence herbicidal activity, GERDI; settings: 20 DAT
Experimental: as §9, §2, §3, §4, §5, §6, §10, §11, §12, §8

Abutilon theophrasti = assay: Greenhouse preemergence herbicidal activity, ABUTH; settings: 20 DAT
Experimental: as §9, §2, §3, §4, §5, §6, §10, §11, §12, §8

Stellaria media = assay: Greenhouse preemergence herbicidal activity, STEME; settings: 20 DAT
Experimental: as §9, §2, §3, §4, §5, §6, §10, §11, §12, §8

Lolium multiflorum = assay: Greenhouse preemergence herbicidal activity, LOLMU; settings: 20 DAT
Experimental: as §9, §2, §3, §4, §5, §6, §10, §11, §12, §8

Anthemis arvensis = assay: Greenhouse preemergence herbicidal activity, ANTAR; settings: 20 DAT
Experimental: as §9, §2, §3, §4, §5, §6, §10, §11, §12, §8

Chenopodium album = assay: Greenhouse preemergence herbicidal activity, CHEAL; settings: 20 DAT
Experimental: as §9, §2, §3, §4, §5, §6, §7, §8

Setaria viridis [4] = assay: Greenhouse preemergence herbicidal activity, SETVI; settings: 20 DAT
Experimental: as §9, §2, §3, §4, §5, §6, §10, §11, §12, §8

Galium aparine = assay: Greenhouse preemergence herbicidal activity, GALAP; settings: 20 DAT
Experimental: as §9, §2, §3, §4, §5, §6, §10, §11, §12, §8

[5] = sulfentrazone solo 12.5 g ai/ha

Cc1ccccc1CO[C@@H]1C[C@]2(C(C)C)CC[C@@]1(C)O2 (racemic) [herbicide A, (±)-2-exo-(2-Methylbenzyloxy)-1-methyl-4-isopropyl-7-oxabicyclo[2.2.1]heptane]
herbicidal activity (Setaria viridis [1]; herbicide A solo 62.5 g ai/ha): 40%
herbicidal activity (Setaria viridis [1]; herbicide A solo 125 g ai/ha): 60%
herbicidal activity (Avena fatua; herbicide A solo 62.5 g ai/ha): 40%
herbicidal activity (Avena fatua; herbicide A solo 250 g ai/ha): 65%
herbicidal activity (Polygonum convolvulus; herbicide A solo 25 g ai/ha): 0%
herbicidal activity (Polygonum convolvulus; herbicide A solo 50 g ai/ha): 0%
herbicidal activity (Polygonum convolvulus; herbicide A solo 62.5 g ai/ha): 0%
herbicidal activity (Polygonum convolvulus; herbicide A solo 250 g ai/ha): 45%
herbicidal activity (Sorghum halepense; herbicide A solo 25 g ai/ha): 90%
herbicidal activity (Sorghum halepense; herbicide A solo 62.5 g ai/ha): 90%
herbicidal activity (Sorghum halepense; herbicide A solo 125 g ai/ha): 95%
herbicidal activity (Sorghum halepense; herbicide A solo 250 g ai/ha): 98%
herbicidal activity (Digitaria sanguinalis; herbicide A solo 62.5 g ai/ha): 60%
herbicidal activity (Digitaria sanguinalis; herbicide A solo 125 g ai/ha): 65%
herbicidal activity (Digitaria sanguinalis; herbicide A solo 250 g ai/ha): 80%
herbicidal activity (Geranium dissectum [2]): 75%
herbicidal activity (Alopecurus myosuroides; herbicide A solo 31.25 g ai/ha): 95%
herbicidal activity (Alopecurus myosuroides; herbicide A solo 62.5 g ai/ha): 98%
herbicidal activity (Geranium dissectum [3]; herbicide A solo 50 g ai/ha): 50%
herbicidal activity (Geranium dissectum [3]; herbicide A solo 62.5 g ai/ha): 70% and 80%
herbicidal activity (Geranium dissectum [3]; herbicide A solo 100 g ai/ha): 50%
herbicidal activity (Geranium dissectum [3]; herbicide A solo 125 g ai/ha): 70%
herbicidal activity (Geranium dissectum [3]; herbicide A solo 250 g ai/ha): 70%
herbicidal activity (Abutilon theophrasti; herbicide A solo 50 g ai/ha): 0%
herbicidal activity (Abutilon theophrasti; herbicide A solo 100 g ai/ha): 0%
herbicidal activity (Stellaria media; herbicide A solo 25 g ai/ha): 20%
herbicidal activity (Stellaria media; herbicide A solo 50 g ai/ha): 20%
herbicidal activity (Stellaria media; herbicide A solo 62.5 g ai/ha): 45%
herbicidal activity (Lolium multiflorum; herbicide A solo 25 g ai/ha): 50%
herbicidal activity (Lolium multiflorum; herbicide A solo 31.25 g ai/ha): 75%
herbicidal activity (Lolium multiflorum; herbicide A solo 62.5 g ai/ha): 85% and 90%
herbicidal activity (Lolium multiflorum; herbicide A solo 125 g ai/ha): 90%
herbicidal activity (Lolium multiflorum; herbicide A solo 500 g ai/ha): 95%
herbicidal activity (Anthemis arvensis; herbicide A solo 25 g ai/ha): 0%
herbicidal activity (Anthemis arvensis; herbicide A solo 31.25 g ai/ha): 0%
herbicidal activity (Anthemis arvensis; herbicide A solo 62.5 g ai/ha): 0%
herbicidal activity (Anthemis arvensis; herbicide A solo 125 g ai/ha): 20%
herbicidal activity (Chenopodium album; herbicide A solo 62.5 g ai/ha): 45%
herbicidal activity (Chenopodium album; herbicide A solo 125 g ai/ha): 60%
herbicidal activity (Setaria viridis [4]; herbicide A solo 25 g ai/ha): 75%
herbicidal activity (Setaria viridis [4]; herbicide A solo 31.25 g ai/ha): 95%
herbicidal activity (Galium aparine; herbicide A solo 31.25 g ai/ha): 30%
herbicidal activity (Galium aparine; herbicide A solo 62.5 g ai/ha): 0%
herbicidal activity (Galium aparine; herbicide A solo 125 g ai/ha): 0%
herbicidal activity (Galium aparine; herbicide A solo 200 g ai/ha): 30%
herbicidal activity (Galium aparine; herbicide A solo 500 g ai/ha): 70%

Cc1nn(-c2cc(NS(C)(=O)=O)c(Cl)cc2Cl)c(=O)n1C(F)F [sulfentrazone, 2′,4′-dichloro-5′-(4-difluoromethyl-4,5-dihydro-3-methyl-5-oxo-1H-1,2,4-triazol-1-yl)methanesulfonanilide]
herbicidal activity (Polygonum convolvulus; [5]): 20%
herbicidal activity (Polygonum convolvulus; sulfentrazone solo 25 g ai/ha): 90%
herbicidal activity (Sorghum halepense; [5]): 0%
herbicidal activity (Sorghum halepense; sulfentrazone solo 100 g ai/ha): 80%
herbicidal activity (Alopecurus myosuroides; sulfentrazone solo 25 g ai/ha): 35%
herbicidal activity (Geranium dissectum [3]; sulfentrazone solo 25 g ai/ha): 50%
herbicidal activity (Abutilon theophrasti; sulfentrazone solo 25 g ai/ha): 65%
herbicidal activity (Abutilon theophrasti; sulfentrazone solo 50 g ai/ha): 65%
herbicidal activity (Stellaria media; [5]): 0%
herbicidal activity (Stellaria media; sulfentrazone solo 25 g ai/ha): 20%
herbicidal activity (Stellaria media; sulfentrazone solo 50 g ai/ha): 40%
herbicidal activity (Lolium multiflorum; [5]): 0%
herbicidal activity (Lolium multiflorum; sulfentrazone solo 100 g ai/ha): 80%
herbicidal activity (Anthemis arvensis; [5]): 40%
herbicidal activity (Anthemis arvensis; sulfentrazone solo 25 g ai/ha): 85%
herbicidal activity (Setaria viridis [4]; [5]): 0%
herbicidal activity (Setaria viridis [4]; sulfentrazone solo 25 g ai/ha): 65%
herbicidal activity (Galium aparine; sulfentrazone solo 100 g ai/ha): 98%
